Data from PubChem BioAssay AID1918954 (Molecular Pharmacology Branch, DTP, NCI, 2023).

Tested on: MDA-MB-468 complex spheroids with HUVEC/MSC, viability
Experiment: Anticancer human tumor MDA-MB-468 cell line growth inhibition;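 further: spheroids exposed to agents for seven days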;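 on viability, T/C: 100% = DMSO vehicle control viability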
Details: for IC50: curve of first compound; for viability, T/C: stronger effect = lower value
Summary of the method: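 Complex spheroids of tumor cells with HUVEC and human MSCs, exposed to iadademstat combined with other agents. Each agent tested in half-log steps from near clinical Cmax (else 10 microM top), DMSO ≤0.25%.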

[1] = second compound 0.1 µM, first compound 0.00949 µM
[2] = second compound 0.1 µM, first compound 0.03 µM
[3] = second compound 0.1 µM, first compound 0.0949 µM
[4] = second compound 0.1 µM, first compound 0.3 µM
[5] = second compound 0.316 µM, first compound 0.00949 µM
[6] = second compound 0.316 µM, first compound 0.03 µM
[7] = second compound 0.316 µM, first compound 0.0949 µM
[8] = second compound 0.316 µM, first compound 0.3 µM
[9] = second compound 1 µM, first compound 0.00949 µM
[10] = second compound 1 µM, first compound 0.03 µM
[11] = second compound 1 µM, first compound 0.0949 µM
[12] = second compound 1 µM, first compound 0.3 µM
[13] = second compound 3.16 µM, first compound 0.00949 µM
[14] = second compound 3.16 µM, first compound 0.03 µM
[15] = second compound 3.16 µM, first compound 0.0949 µM
[16] = second compound 3.16 µM, first compound 0.3 µM
[17] = second compound 10 µM, first compound 0.00949 µM
[18] = second compound 10 µM, first compound 0.03 µM
[19] = second compound 10 µM, first compound 0.0949 µM
[20] = second compound 10 µM, first compound 0.3 µM

CC1(C)CCC(CN2CCN(c3ccc(C(=O)NS(=O)(=O)c4ccc(NCC5CCOCC5)c([N+](=O)[O-])c4)c(Oc4cnc5[nH]ccc5c4)c3)CC2)=C(c2ccc(Cl)cc2)C1 + NC1CCC(NC2CC2c2ccccc2)CC1
IC50 (second compound 0.1 µM): 5.55 µM | IC50 (second compound 0.316 µM): 5.7 µM | IC50 (second compound 1 µM): 3.81 µM | IC50 (second compound 3.16 µM): 4.46 µM | IC50 (second compound 10 µM): 4.24 µM | viability, T/C (second compound 0.1 µM, first compound 0.0316 µM): 92.8% | viability, T/C (second compound 0.1 µM, first compound 0.1 µM): 87% | viability, T/C (second compound 0.1 µM, first compound 0.316 µM): 103% | viability, T/C (second compound 0.1 µM, first compound 1 µM): 98.6% | viability, T/C (second compound 0.1 µM, first compound 3.16 µM): 70% | viability, T/C (second compound 0.1 µM, first compound 10 µM): 29.1% | viability, T/C (second compound 0.316 µM, first compound 0.0316 µM): 99.8% | viability, T/C (second compound 0.316 µM, first compound 0.1 µM): 119% | viability, T/C (second compound 0.316 µM, first compound 0.316 µM): 128% | viability, T/C (second compound 0.316 µM, first compound 1 µM): 87.6% | viability, T/C (second compound 0.316 µM, first compound 3.16 µM): 78% | viability, T/C (second compound 0.316 µM, first compound 10 µM): 26.4% | viability, T/C (second compound 1 µM, first compound 0.0316 µM): 73.9% | viability, T/C (second compound 1 µM, first compound 0.1 µM): 113% | viability, T/C (second compound 1 µM, first compound 0.316 µM): 94.8% | viability, T/C (second compound 1 µM, first compound 1 µM): 79.1% | viability, T/C (second compound 1 µM, first compound 3.16 µM): 54% | viability, T/C (second compound 1 µM, first compound 10 µM): 34.8% | viability, T/C (second compound 3.16 µM, first compound 0.0316 µM): 87.9% | viability, T/C (second compound 3.16 µM, first compound 0.1 µM): 95.5% | viability, T/C (second compound 3.16 µM, first compound 0.316 µM): 78.1% | viability, T/C (second compound 3.16 µM, first compound 1 µM): 76.6% | viability, T/C (second compound 3.16 µM, first compound 3.16 µM): 61.2% | viability, T/C (second compound 3.16 µM, first compound 10 µM): 27.2% | viability, T/C (second compound 10 µM, first compound 0.0316 µM): 71.2% | viability, T/C (second compound 10 µM, first compound 0.1 µM): 68.7% | viability, T/C (second compound 10 µM, first compound 0.316 µM): 67.1% | viability, T/C (second compound 10 µM, first compound 1 µM): 65.3% | viability, T/C (second compound 10 µM, first compound 3.16 µM): 58.1% | viability, T/C (second compound 10 µM, first compound 10 µM): 27.8%

CCN(c1cc(-c2ccc(CN3CCOCC3)cc2)cc(C(=O)NCc2c(C)cc(C)[nH]c2=O)c1C)C1CCOCC1 + NC1CCC(NC2CC2c2ccccc2)CC1
IC50 (second compound 0.1 µM): > 3 µM | IC50 (second compound 0.316 µM): > 3 µM | IC50 (second compound 1 µM): > 3 µM | IC50 (second compound 3.16 µM): > 3 µM | IC50 (second compound 10 µM): > 3 µM | viability, T/C [1]: 107% | viability, T/C [2]: 96% | viability, T/C [3]: 100% | viability, T/C [4]: 88.1% | viability, T/C (second compound 0.1 µM, first compound 0.949 µM): 85.5% | viability, T/C (second compound 0.1 µM, first compound 3 µM): 83% | viability, T/C [5]: 99.7% | viability, T/C [6]: 102% | viability, T/C [7]: 96.7% | viability, T/C [8]: 102% | viability, T/C (second compound 0.316 µM, first compound 0.949 µM): 88.6% | viability, T/C (second compound 0.316 µM, first compound 3 µM): 91.9% | viability, T/C [9]: 87% | viability, T/C [10]: 92.3% | viability, T/C [11]: 95.7% | viability, T/C [12]: 87.4% | viability, T/C (second compound 1 µM, first compound 0.949 µM): 86% | viability, T/C (second compound 1 µM, first compound 3 µM): 74.9% | viability, T/C [13]: 86.3% | viability, T/C [14]: 76.8% | viability, T/C [15]: 97.8% | viability, T/C [16]: 99.9% | viability, T/C (second compound 3.16 µM, first compound 0.949 µM): 77.4% | viability, T/C (second compound 3.16 µM, first compound 3 µM): 88.5% | viability, T/C [17]: 67.2% | viability, T/C [18]: 72.2% | viability, T/C [19]: 66.8% | viability, T/C [20]: 74.5% | viability, T/C (second compound 10 µM, first compound 0.949 µM): 75.8% | viability, T/C (second compound 10 µM, first compound 3 µM): 63.4%

Nc1ncn(C2CC(O)C(CO)S2)c(=O)n1 (stereo not given) + NC1CCC(NC2CC2c2ccccc2)CC1
IC50 (second compound 0.1 µM): 0.0883 µM | IC50 (second compound 0.316 µM): 0.0905 µM | IC50 (second compound 1 µM): 0.0804 µM | IC50 (second compound 3.16 µM): 0.0657 µM | IC50 (second compound 10 µM): 0.0116 µM | viability, T/C (second compound 0.1 µM, first compound 0.000949 µM): 90.8% | viability, T/C (second compound 0.1 µM, first compound 0.003 µM): 95.7% | viability, T/C [1]: 76.8% | viability, T/C [2]: 59.6% | viability, T/C [3]: 54.5% | viability, T/C [4]: 35% | viability, T/C (second compound 0.316 µM, first compound 0.000949 µM): 89.7% | viability, T/C (second compound 0.316 µM, first compound 0.003 µM): 80% | viability, T/C [5]: 72.8% | viability, T/C [6]: 71.3% | viability, T/C [7]: 45.6% | viability, T/C [8]: 29.8% | viability, T/C (second compound 1 µM, first compound 0.000949 µM): 76.5% | viability, T/C (second compound 1 µM, first compound 0.003 µM): 87.8% | viability, T/C [9]: 76.1% | viability, T/C [10]: 64.1% | viability, T/C [11]: 48.5% | viability, T/C [12]: 38.1% | viability, T/C (second compound 3.16 µM, first compound 0.000949 µM): 81.2% | viability, T/C (second compound 3.16 µM, first compound 0.003 µM): 68.3% | viability, T/C [13]: 76% | viability, T/C [14]: 67.5% | viability, T/C [15]: 41.8% | viability, T/C [16]: 33.7% | viability, T/C (second compound 10 µM, first compound 0.000949 µM): 64.6% | viability, T/C (second compound 10 µM, first compound 0.003 µM): 53% | viability, T/C [17]: 54.5% | viability, T/C [18]: 43% | viability, T/C [19]: 40% | viability, T/C [20]: 31.1%
